Results on 14 compounds are retold here after US20230405157A1, “MELANOCORTIN TYPE 2 RECEPTOR (MC2R) TARGETED THERAPEUTICS AND USES THEREOF” (Radionetics Oncology, Inc., priority 2022, published 2023).

For the experiment, the target named is T1, human MC2R (Homo sapiens, UniProt Q01718).
T1 construct: host or cells: CellSensor CRE-bla CHO-K1 cells
T1 sequence (Q01718 whole entry): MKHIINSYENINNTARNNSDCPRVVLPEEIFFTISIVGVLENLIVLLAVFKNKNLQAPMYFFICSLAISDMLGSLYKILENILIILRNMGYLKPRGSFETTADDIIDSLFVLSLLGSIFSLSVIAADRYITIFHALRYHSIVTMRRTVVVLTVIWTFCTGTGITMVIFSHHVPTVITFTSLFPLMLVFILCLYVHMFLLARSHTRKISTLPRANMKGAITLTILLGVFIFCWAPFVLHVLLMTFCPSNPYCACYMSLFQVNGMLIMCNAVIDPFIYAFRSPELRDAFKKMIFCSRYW
T1 sequence (Q8TCY5 whole entry partner): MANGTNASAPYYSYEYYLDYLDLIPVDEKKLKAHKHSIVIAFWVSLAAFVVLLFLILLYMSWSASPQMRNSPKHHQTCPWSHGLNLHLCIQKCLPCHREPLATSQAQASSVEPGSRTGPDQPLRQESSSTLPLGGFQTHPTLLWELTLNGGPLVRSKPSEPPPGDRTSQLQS
Put plainly: Inhibition of binding of ACTH in human MC2R-containing membranes (SPA radioligand competition). As to conditions: competition with 0.2 nM [125I]-TYR23]-ACTH (1-39), membranes of CHO-K1 cells expressing hMC2 receptor; read-out: hMC2 membrane binding. As for the experimental part:
Crude membrane fractions are prepared from CellSensor CRE-blaCHO-K1 cells stably expressing functional hMC2 receptor (ThermoFisher #K1483). […] Cells were collected and washed in Dulbecco's phosphate buffered saline (Corning #21-031-CV). […] The membrane fraction is separated from cell debris and collected in membrane preparation buffer, flash frozen in liquid nitrogen and stored at −80° C. […] Briefly, membranes from cells expressing the human MC2R were incubated with SPA beads (PerkinElmer #RPNQ0001) in binding assay buffer [50 mM HEPES (Biopioneer #C0113), 5 mM MgCl2 (Sigma #M8266), 1 mM CaCl2) (Fisher Scientific #BP510), 0.2% BSA (Fisher Scientific #BP1600), and protease inhibitors (Pierce #A32963); pH 7.4]. […] All data manipulations to determine the Kivalues were performed using GraphPad v8 (GraphPad, San Diego CA)
Background: In a radioligand displacement assay an active substance lowers the binding of a labelled ligand.
Take “2,2′,2″-(10-((R)-8-amino-1-(2′-ethoxy-5-((R)-4-(6-ethoxy-2-(trifluoromethyl)-nicotinoyl)-2-ethylpiperazin-1-yl)-[2,3′-bipyridin]-6-yl)-7,10,18-trioxo-14-oxa-2,6,11,17-tetra-azanonadecan-19-yl)-1,4,7,10-tetraazacyclododecane-1,4,7-triyl)triacetic acid [Compound 10]”: the Ki was below 10 nM. In the case of `CCOc1ccc(C(=O)N2CCN(c3ccc(-c4ccccc4OCC)nc3CNCCCOc3cc(NCCOCCNC(=O)CN4CCN(CC(=O)O)CCN(CC(=O)O)CCN(CC(=O)O)CC4)cc(C(=O)O)c3)[C@H](CC)C2)c(C(F)(F)F)c1` [^115In complex of Compound 3], the Ki was below 10 nM. To `CCOc1ccc(C(=O)N2CCN(c3ccc(-c4cccnc4OCC)nc3CNCCCNC(=O)[C@@H](N)CC(=O)NCCOCCNC(=O)CN3CCN(CC(=O)O)CCN(CC(=O)O)CCN(CC(=O)O)CC3)[C@H](CC)C2)c(C(F)(F)F)n1` [^115In complex of Compound 5] belongs below 10 nM. To “(R)-2,2′,2″-(10-(1-(3-(4-(4-ethoxy-2-(trifluoromethyl)benzoyl)-2-ethylpiperazin-1-yl)-6-(2-ethoxyphenyl)pyridin-2-yl)-19-oxo-6,9,12,15-tetraoxa-2,18-diazaicosan-20-yl)-1,4,7,10-tetraazacyclododecane-1,4,7-triyl)triacetic acid [Compound 11]” belongs below 10 nM.

As to `CCOc1ccccc1-c1ccc(N2CCN(C(=O)c3ccc(Cl)cc3C(F)F)C[C@H]2CC)c(C(=O)NC2CCN(CCCOc3cc(NCCOCCNC(=O)CN4CCN(CC(=O)O)CCN(CC(=O)O)CCN(CC(=O)O)CC4)cc(C(=O)O)c3)C2)n1` (stereo in doubt) [Compound 13, 2,2′,2″-(10-(2-((2-(2-((3-carboxy-5-(3-((R)-3-(3-((R)-4-(4-chloro-2-(difluoromethyl)benzoyl)-2-ethylpiperazin-1-yl)-6-(2-ethoxyphenyl)picolinamido)pyrrolidin-1-yl)propoxy)phenyl)amino)ethoxy)ethyl)amino)-2-oxoethyl)-1,4,7,10-tetraazacyclododecane-1,4,7-triyl)triacetic acid], the Ki is below 10 nM.

On to `CCOc1ccc(C(=O)N2CCN(c3ccc(-c4cccnc4OCC)nc3CNCCCC[C@@H](NC(=O)CN3CCN(CC(=O)O)CCN(CC(=O)O)CCN(CC(=O)O)CC3)C(=O)O)[C@H](CC)C2)c(C(F)(F)F)n1` [^115In complex of Compound 2], for which the Ki was below 10 nM. For the compound `CCOc1ccc(C(=O)N2CCN(c3ccc(-c4cccnc4OCC)nc3CNCCCOCCOCCOCCOCCNC(=O)CCC(C(=O)O)N3CCN(CC(=O)O)CCN(CC(=O)O)CCN(CC(=O)O)CC3)[C@H](CC)C2)c(C(F)(F)F)n1` (stereo partly drawn) [Compound 18, 2,2′,2″-(10-(22-carboxy-1-(2′-ethoxy-5-((R)-4-(6-ethoxy-2-(trifluoromethyl)-nicotinoyl)-2-ethylpiperazin-1-yl)-(2,3′-bipyridin]-6-yl)-19-oxo-6,9,12,15-tetraoxa-2,18-diazadocosan-22-yl)-1,4,7,10-tetraazacyclododecane-1,4,7-triyl)triacetic acid], the Ki was below 10 nM.

`CCOc1ccc(C(=O)N2CCN(c3ccc(-c4cccnc4OCC)nc3CNCCCCCCCCCCCCCCCNC(=O)CN3CCN(CC(=O)O)CCN(CC(=O)O)CCN(CC(=O)O)CC3)[C@H](CC)C2)c(C(F)(F)F)n1` [Compound 14, (R)-2,2′,2″-(10-(2-((15-(((2′-ethoxy-5-(4-(6-ethoxy-2-(trifluoromethyl)nicotinoyl)-2-ethylpiperazin-1-yl)-[2,3′-bipyridin]-6-yl)methyl)amino)pentadecyl)amino)-2-oxoethyl)-1,4,7,10-tetraazacyclododecane-1,4,7-triyl)triacetic acid]: the Ki is below 10 nM. To `CCOc1ccc(C(=O)N2CCN(c3ccc(-c4cccnc4OCC)cc3CNCCNCCCOCCOCCOCCOCCNC(=O)CN3CCN(CC(=O)O)CCN(CC(=O)O)CCN(CC(=O)O)CC3)[C@H](CC)C2)c(C(F)(F)F)n1` [Compound 15, (R)-2,2′,2″-(10-(1-(2-(4-(6-ethoxy-2-(trifluoromethyl)nicotinoyl)-2-ethylpiperazin-1-yl)-5-(2-ethoxypyridin-3-yl)phenyl)-22-oxo-9,12,15,18-tetraoxa-2,5,21-triazatricosan-23-yl)-1,4,7,10-tetraazacyclododecane-1,4,7-triyl)triacetic acid] belongs below 10 nM; to `CCOc1ccc(C(=O)N2CCN(c3ccc(-c4cccnc4OCC)nc3CNCCCN(CCOCCOCCOCCNC(=O)CN3CCN(CC(=O)O)CCN(CC(=O)O)CCN(CC(=O)O)CC3)CCOCCOCCOCCNC(=O)CN3CCN(CC(=O)O)CCN(CC(=O)O)CCN(CC(=O)O)CC3)[C@H](CC)C2)c(C(F)(F)F)n1` [^115In complex of Compound 4], below 10 nM. As to `CCOc1ccc(C(=O)N2CCN(c3ccc(-c4ccccc4OCC)nc3CNCCNCCCOCCOCCOCCOCCNC(=O)CN3CCN(CC(=O)O)CCN(CC(=O)O)CCN(CC(=O)O)CC3)[C@H](CC)C2)c(C(F)(F)F)c1` [Compound 17, (R)-2,2′,2″-(10-(1-(3-(4-(4-ethoxy-2-(trifluoromethyl)benzoyl)-2-ethylpiperazin-1-yl)-6-(2-ethoxyphenyl)pyridin-2-yl)-22-oxo-9,12,15,18-tetraoxa-2,5,21-triazatricosan-23-yl)-1,4,7,10-tetraazacyclododecane-1,4,7-triyl)triacetic acid], the Ki was below 10 nM. To `CCOc1ccc(C(=O)N2CCN(c3ccc(-c4cccnc4OCC)nc3CNCCCNC(=O)C[C@H](O)C[C@H](O)CCNC(=O)CN3CCN(CC(=O)O)CCN(CC(=O)O)CCN(CC(=O)O)CC3)[C@H](CC)C2)c(C(F)(F)F)n1` [Compound 6, 2,2′,2″-(10-(2-(((3R,5R)-7-((3-(((2′-ethoxy-5-((R)-4-(6-ethoxy-2-(trifluoromethyl)-nicotinoyl)-2-ethylpiperazin-1-yl)-[2,3′-bipyridin]-6-yl)methyl)amino)propyl)-amino)-3,5-dihydroxy-7-oxoheptyl)amino)-2-oxoethyl)-1,4,7,10-tetraazacyclododecane-1,4,7-triyl)triacetic acid] belongs below 10 nM; to `CCOc1ccc(C(=O)N2CCN(c3ccc(-c4cccnc4OCC)cc3CNCCNCCCOCCOCCOCCOCCNC(=O)CN3CCN(CC(=O)[O-])CCN(CC(=O)[O-])CCN(CC(=O)[O-])CC3)[C@H](CC)C2)c(C(F)(F)F)n1.[Ga+3]` [^69/71Ga complex of Compoud 15, gallium (R)-2,2′,2″-(10-(1-(2-(4-(6-ethoxy-2-(trifluoromethyl)nicotinoyl)-2-ethylpiperazin-1-yl)-5-(2-ethoxypyridin-3-yl)phenyl)-22-oxo-9,12,15,18-tetraoxa-2,5,21-triazatricosan-23-yl)-1,4,7,10-tetraazacyclododecane-1,4,7-triyl)triacetate], below 10 nM. With `CCOc1ccccc1-c1ncc(C2(C(=O)N[C@@H]3CCN(CCOCCOCCOCCOCCNC(=O)CN4CCN(CC(=O)O)CCN(CC(=O)O)CCN(CC(=O)O)CC4)C3)CCN(c3ccc(C(F)(F)F)cc3C#N)CC2)cc1F` [Compound 9, (R)-2,2′,2″-(10-(17-(3-(1-(2-cyano-4-(trifluoromethyl)phenyl)-4-(6-(2-ethoxy-phenyl)-5-fluoropyridin-3-yl)piperidine-4-carboxamido)pyrrolidin-1-yl)-2-oxo-6,9,12,15-tetra-oxa-3-azaheptadecyl)-1,4,7,10-tetraazacyclododecane-1,4,7-triyl)triacetic acid], the Ki is below 10 nM.
